Measurements from publication PMC7663979, “Design of Novel 4-Aminobenzofuroxans and Evaluation of Their Antimicrobial and Anticancer Activity” (International Journal of Molecular Sciences, 2020).
Several values for one entry are separate records, joined by “and”; a condition that tells them apart may be missing. Equal values may be shown once. Read-outs that look alike come from different tables or passages of the source.

Columns and labels:
[1] = tested on: Microdochium nivale isolate 1; assay: Fungistatic activity, agar growth medium poison technique, isolate 1; type: cell-based; settings: Microdochium nivale, 1 mM in PSA, 20 °C
Experimental: (§1) Fungistatic activity of the tested compounds was assessed in vitro using agar growth medium poison technique. The target compounds as well as widely used fungicides benzimidazole and carbendazim were dissolved to 10 mM concentration in 20% Tween 20. The obtained solutions were added 1:9 v/v (giving 1 mM-concentrations of the target compounds) to potato-sucrose agar (PSA) at 60 °C, mixed thoroughly and transferred to Petri dishes. For the control variants, PSA was supplemented with 20% Tween 20 (9:1). Fungistatic effect was tested against two isolates of Microdochium nivale causing snow mold disease of winter cereals (rye) from the culture collection of FRC Kazan Scientific Center of RAS. […] The center of each solidified medium was inoculated upside-down with 5-mm diameter mycelial plug cut from the periphery of 10-day-old cultures. The tested dishes were incubated at 20 °C. The percentage growth inhibition was calculated using Abbott’s formula (1):%Inhibition = [(A − B) ÷ A] × 100(1) where ‘A’ is mycelia growth in the control conditions and ‘B’ is mycelia growth in the treatment conditions. The assay was performed at least in triplicate. Linear growth of each colony was determined during 6 days.

[2] = tested on: Microdochium nivale isolate 21; assay: Fungistatic activity, agar growth medium poison technique, isolate 21; type: cell-based; settings: Microdochium nivale, 1 mM in PSA, 20 °C
Experimental: as §1

[3] = tested on: M-HeLa; assay: Cytotoxicity assay (Cytell Cell Viability BioApp), M-HeLa; type: cell-based, human; settings: for IC50: Homo sapiens, M-HeLa, mean ± SD, three experiments; for SI M-HeLa: selectivity index = IC50 normal cells (Chang liver) / IC50 cancer cells, n.s. = no selectivity
[4] = tested on: MCF7; assay: Cytotoxicity assay (Cytell Cell Viability BioApp), MCF7; type: cell-based, human; settings: for IC50: Homo sapiens, MCF7, mean ± SD, three experiments; for SI MCF7: selectivity index = IC50 normal cells (Chang liver) / IC50 cancer cells, n.s. = no selectivity
[5] = tested on: PANC-1; assay: Cytotoxicity assay (Cytell Cell Viability BioApp), PANC-1; type: cell-based, human; settings: for IC50: Homo sapiens, PANC-1, mean ± SD, three experiments; for SI PANC-1: selectivity index = IC50 normal cells (Chang liver) / IC50 cancer cells, n.s. = no selectivity
[6] = tested on: T98G; assay: cells; type: cell-based, human; settings: for IC50: Homo sapiens, T98G, read-out: IC50 T98G; for SI T98G: selectivity index = IC50 normal cells (Chang liver) / IC50 cancer cells, n.s. = no selectivity
[7] = tested on: Chang Liver; assay: Cytotoxicity assay (Cytell Cell Viability BioApp), normal Chang liver cells; type: cell-based; settings: Homo sapiens, mean ± SD, three experiments, read-out: IC50 Chang Liver (normal cell line)
[8] = tested on: M-HeLa cells; assay: Cell apoptosis analysis by flow cytometry (annexin V-Alexa Fluor 647 / propidium iodide); type: cell-based, human; settings: 24 h
Experimental: (§2) Cell Culture. M-HeLa cells at 10^6 cells/ well in a final volume of 2 mL were seeded into 6-well plates. After 24 h of incubation, various concentrations of compounds 3c and 3f were added to wells.
Cell Apoptosis Analysis. The cells were harvested at 2000 rpm for 5 min and, then, washed twice with ice-cold PBS, followed by resuspension in binding buffer 100 μL. Next, the samples were incubated with 0.35 μL of annexin V-Alexa Fluor 647 and 0.1 μL of propidium iodide for 40 min at room temperature in the dark. Finally, the cells were analyzed by flow cytometry (Guava easyCyte, MERCK, Kenilworth, NJ, USA). The experiments were repeated three times.

[9] = tested on: M-HeLa cells; assay: Cell cycle analysis, propidium iodide, flow cytometry; type: cell-based, human; settings: 24 h, control cells 34.28%
Experimental: as §2
The DNA content and cell-cycle distribution after […] were estimated by flow cytometry. Cell seeding, drug treatment and ethanol fixation were similar to cell proliferation assay. After washing with PBS, […] were suspended in 150 μL of PBS, then 0.5 mL phosphate-citrate buffer (0.05 M, pH = 4.0) was added and the suspension was incubated at room temperature for 5 min to facilitate the extraction of low molecular weight DNA. Following centrifugation the cells were resuspended in 150 μL DNA staining solution (20 μg/mL propidium iodide, 200 μg/mL […], and 0.1% Triton X-100) and incubated in the CO2 incubator (37 °C for 30 min). Cell cycle distribution was determined by fluorescence-activated cell sorting analysis of propidium iodide-stained ethanol-fixed cells using a Guava EasyCyte (Guava easyCyte, MERCK, Kenilworth, NJ, USA).

[10] = tested on: Vibrio aquamarinus DSM 26054; design: method as in PMID 31450696; settings: control = 100%, data first published in ref 40, cited from earlier work
[11] = tested on: M-HeLa cells; assay: Mitochondrial membrane potential, JC-10, flow cytometry; type: cell-based, human; settings: ≥ IC 50 concentrations
Experimental: as §2
The cells were harvested at 2000 rpm for 5 min and, then, washed twice with ice-cold PBS, followed by resuspension in JC-10 (10 µg/mL) and incubation at 37 °C for 10 min. After the cells were rinsed three times and suspended in PBS, the JC-10 fluorescence was observed by flow cytometry.

SMILES	IC50 [3] [µM]	SI M-HeLa [3]	IC50 [4] [µM]	SI MCF7 [4]	IC50 [5] [µM]	SI PANC-1 [5]	IC50 [6] [µM]	SI T98G [6]	IC50 [7] [µM]	D—dead cells ([8]; 10 μM) [%]	Ea—early apoptotic cells ([8]; 10 μM) [%]	La—late apoptotic cells ([8]; 10 μM) [%]	L—living cells ([8]; 10 μM) [%]	intensity of red fluorescence (JC-10) compared to the control [11]	other results
O=[N+]([O-])c1c(Cl)cc2c(no[n+]2[O-])c1Nc1ccc(Br)cc1 [Compound 3c, 4-((4-bromophenyl)amino)-6-chloro-5-nitrobenzofuroxan]	4.8 ± 0.4	12.8	3.7 ± 0.2	16.6	59.2 ± 4.6	1.0	20.4 ± 1.7	3	61.3 ± 5.1	6.16	17.33	15.69	60.82		inhibition at 1000 µM ([1]; fifth day of incubation): > 40%; inhibition at 1000 µM ([1]; sixth day of incubation): > 25%; inhibition at 1000 µM ([2]; fifth day of incubation): > 40%; inhibition at 1000 µM ([2]; sixth day of incubation): > 25%; D—dead cells ([8]; 5 μM): 3.92%; Ea—early apoptotic cells ([8]; 5 μM): 6.67%; La—late apoptotic cells ([8]; 5 μM): 8.63%; L—living cells ([8]; 5 μM): 80.78%; cells in G0/G1 phase (G1) ([9]; 5 μM): 62.9% and 62.91%; cells in G0/G1 phase (G1) ([9]; 10 μM): 70.1% and 70.06%
O=[N+]([O-])c1c(Cl)cc2c(no[n+]2[O-])c1Nc1cccc(O)c1 [Compound 3f, 6-chloro-4-((3-hydroxyphenyl)amino)-5-nitrobenzofuroxan]	16 ± 1.3	4.0	8.1 ± 0.7	8.0	> 100	n.s.	59.8 ± 4.8	1.1	64.4 ± 5.7	5.03	14.46	12.79	67.72		D—dead cells ([8]; 15 μM): 8.16%; Ea—early apoptotic cells ([8]; 15 μM): 17.59%; La—late apoptotic cells ([8]; 15 μM): 16.83%; L—living cells ([8]; 15 μM): 57.42%; cells in G0/G1 phase (G1) ([9]; 15 μM): 66.8%; Biofilm Formation, % ([10]; compound concentration 1 × 10^−4 M): 98.97%; Biofilm Formation, % ([10]; compound concentration 1 × 10^−5 M): 96.57%; Biofilm Formation, % ([10]; compound concentration 1 × 10^−6 M): 43.56% and 43.56 * %; Biofilm Formation, % ([10]; compound concentration 1 × 10^−7 M): 11.34% and 11.34 * %; Biofilm Formation, % ([10]; compound concentration 1 × 10^−8 M): 9.31% and 9.31 * %; Biofilm Formation, % ([10]; compound concentration 1 × 10^−9 M): 66.58%
O=[N+]([O-])c1c(Cl)cc2c(no[n+]2[O-])c1NCCCN1CCOCC1 [Compound 5c, 6-chloro-4-((3-morpholinopropyl)amino)-5-nitrobenzofuroxan]	49.3 ± 3.9	>2	> 100	n.s.	38 ± 2.9	>2.6	> 100	n.s.	> 100					did not change significantly	
O=[N+]([O-])c1c(Cl)cc2c(no[n+]2[O-])c1N1CCCC1 [Compound 5g, 6-chloro-5-nitro-4-(pyrrolidin-1-yl)benzofuroxan]	> 100	n.s.	> 100	n.s.	> 100	n.s.	> 100	n.s.	> 100					did not change significantly	
CC(C)c1ccc(Nc2c([N+](=O)[O-])cc([N+](=O)[O-])c3no[n+]([O-])c23)cc1 [Compound 6, 7-(4-isopropylphenylamino)-4,6-dinitrobenzofuroxan]															melting point: 110 to 111 °C
